Patent US7259145B2, “Mechanically activated channel blocker” (The Research Foundation of State University of New York, priority 2004, dated 2007)
Entries after “also recorded” stand apart in the source; their conditions may differ. Non-standard residues stand in square brackets, D forms with d. No end group written: not given here.

Key:
[1] = tested on: stretch-activated channels (SACs); test: SAC currents, outside-out patch of rat astrocytes (pressure clamp); type: cell-based; conditions: for inhibition of SACs (averaged current): 5 μM, rat astrocyte outside-out patch, FIG. 2
Experimental: (§1) Primary reactive rat astrocytes cultures (passages 4 to 10) were prepared as previously described. Primary cultures of chick heart cells were prepared from 11-day-old embryos as previously described (Bett et al., J. Membr. Biol. 173, 237-254, 2000).
(§2) Outside-out patches were formed using pipettes containing 140 mM KCl, 2 mM MgCl2, 10 mM HEPES and 0.5 mM EGTA (as K ? salts). SAC currents were recorded using an Axopatch 200B patch clamp, with pClamp9 software and a Digidata 1322A acquisition system (Axon Instruments). Pressure was applied to the patch pipette with an HSPC-1 pressure clamp, and the patch was perfused using an ALA MP285 perfusion system (ALA Scientific Instruments). GsMTx4 or analog was dissolved in the perfusion solution: 140 mM NaCl, 10 mM Na-HEPES, 5 mM KCl, and 1 mM MgCl2. All experiments were repeated […] times.

gA channels = test: Gramicidin (gA) channel gating in lipid bilayer; type: biochemical
Experimental: FIG. 3 is a representation of the effect of GsMTx4 on gA channels. a, Current traces before and after addition of 200 nM GsMTx4 to both sides of a bilayer doped with chain-shortened des-Val 1-Gly 2-gA (gA2(13)) and [Ala 1]gA (AgA(15)) (numbers in parenthesis denote number of residues in the sequence): gA2 is the enantiomer of gA20. b, c, Single-channel currents (b) and lifetimes (c) as a function of GsMTx4 concentration (see Methods). d, Average lifetime (t) as a function of channel length, helix sense and identity of the aromatic at the channel/solution interface. gA2(13) and AgA(15) as above, AgA2(15) is [D-Ala 1]gA2, gT is [Tyr9,11,13,15]gA (ref. 21). 200 nM GsMTx4; columns and error bars denote mean±s.d. (n≧3).
The effect of L-GsMTx-4 on gA gating was first determined. gA channels are dimers formed by the transbilayer association of monomers in opposing monolayers (O'Connell et al., Science 250, 1256-1259, 1990). Channel formation is generally associated with local bilayer thinning, which makes gA monomer ⇄ dimer equilibrium and thus the channel lifetime and appearance rate sensitive to bilayer thickness, elastic moduli and curvature stress. Thus, if GsMTx4 binds to the lipid bilayer, one would expect it to also alter the lipid packing adjacent to the channel and thus the gA gating kinetics and, because it is cationic decrease the channel current.

cationic SACs [2] = conditions: chick heart, rat astrocytes and skeletal muscle, human smooth muscle; cited from earlier work
[3] = tested on: stretch-activated channels (SACs); test: SAC currents, outside-out patch of chick heart cells; type: cell-based
Experimental: as §1, §2

[4] = Binding to large unilamellar lipid vesicles by tryptophan fluorescence; type: physicochemical
Experimental: Fluorescence measurements were performed as described by Ladokhin et al. (Anal. Biochem. 285, 235245, 2000) with an AMJNCO-Bowman Series 2 spectrofluorimeter. The excitation and emission wavelengths were 280 nm (8 nm band pass, 08 polarizer) and 346 nm (16 nm band pass, 908 polarizer). Large unilamellar vesicles of egg lecithin (Avanti Polar Lipids) were formed by extrusion. Tryptophan (Sigma) and GsMTx4 titration experiments were performed in 8 mM phosphate buffer containing 1 mM EGTA at pH 7. Three spectra were collected at each lipid concentration with both tryptophan and GsMtx4 (both at 30μM). After background subtraction, the mean fluorescence intensity at each lipid concentration was corrected for vesicle scattering (Ladokhin et al., Anal. Biochem, 285, 235245, 2000) and normalized to the zero lipid fluorescence intensity. The results are reported assuming a vesicle diameter of 130 nm, and area per lipid in the monolayer of 0.7 nm2.
To determine if GsMTx4 functions by altering bilayer properties, using the tryptophan fluorescence (Ladokhin et al., supra) of GsMTx4, we measured its binding to large unilamellar lipid vesicles. […]

cationic SACs [5] = test: Inhibition and gating of cationic SACs in vertebrate cell types (affinity, apparent rates); type: cell-based
Experimental: GsMTx4 inhibits ubiquitous cationic SACs in a variety of vertebrate cell types (200-600 nM, for example, chick heart, rat astrocytes and skeletal muscle, and human smooth muscle) (Gottlieb et al., Current Drug Targets—CNS & Neurological Disorders 3:287-295, 2004) despite the fact that they have different kinetic properties and presumably different structure. […] While not intending to be bound by any particular theory, it is believed, based on predictions using the Poisson-Boltzmann models, that this effect is seen when GsMTx4 is located within about 1.5 nm of the channel vestibule.
To determine if GsMTx4 functions by altering bilayer properties, using the tryptophan fluorescence (Ladokhin et al., supra) of GsMTx4, we measured its binding to large unilamellar lipid vesicles. The partition coefficient, defined as ([GsMTx4]bil/[Lipid])/([GsMTx4]aq/[H2O]) (where the subscripts denote the bilayer and aqueous phases, respectively, for example see White et al., Methods Enzymol. 295, 62-87, 1998), was ˜3×10^5 corresponding to an adsorption coefficient of 10 ^−3 cm (defined as ^2bil/[GsMTx4 ]aq, where ^2bil denotes the surface density, in moles per unit area). […] This has two implications. First, the intrinsic affinity between a lipid-bound GsMTx4 and the channel could be quite modest and yet account for the observed KD (Kim et al., Biophys. J. 60, 135148, 1991). Second, the mean surface density of GsMTx4 is sufficiently high that fast exchange (50 ms) between the bulk bilayer and the lipids adjacent to the channel can alter the local (and global) bilayer mechanical properties. The apparent association and dissociation rates for SAC effects (Ka≈10^6 M^−1 s^−1, KD≈0.2 s^−1) are consistent with such a fast exchange (as well as slower, more specific binding).

TRPC1 = test: Stretch activated channels in CHO cells transfected to express TRPC1; type: cell-based; conditions: CHO cells expressing TRPC1
[6] = 5 mM GsMTx4 [sic], chick heart outside-out patch

Substance: D-GsMTx4: All-D-amino-acid enantiomer of GsMTx4, SEQ ID NO:1 GCLEFWWKCNPNDDKCCRPKLKCSKLFKLCNFSF-amide (G[dC][dL][dE][dF][dW][dW][dK][dC][dN][dP][dN][dD][dD][dK][dC][dC][dR][dP][dK][dL][dK][dC][dS][dK][dL][dF][dK][dL][dC][dN][dF][dS][dF]-NH2; not fully specified (bridges); printed as GCLEFWWKCNPNDDKCCRPKLKCSKLFKLCNFSF-amide; ends and bridges not checked; also: three disulfides after oxidative folding, pairing not given here)
- inhibition of SACs (averaged current) [1]: equivalent efficacy to the wild type L-form; also recorded: inhibit SACs with similar efficacy to GsMTx4; also recorded: at least as potent and may be more potent than L-GsMTx-4
- increase in gA channel appearance rates (gA channels; 400 nM D-GsMTx4): 10 fold
- increase in gA channel lifetime (gA channels; 400 nM D-GsMTx4): 4 fold

Substance: GsMTx4
- concentration inhibiting cationic SACs (cationic SACs [2]): 200 to 600 nM
- suppression of average inward current ([1]; 5 μM GsMTx4 (b40 also prints 5 mM), outside-out astrocyte patch): 80%
- open state dwell time distribution ([1]; 5 μM GsMTx4, data not shown): not affected
- inhibition of SACs (averaged current) [1]: both inhibit SACs
- membrane tension required for SAC activation ([1]; applied to extracellular face, FIGS. 1a and 1b): increasing the membrane tension required for activation
- reduction of average inward currents [3, 6]: 70%
- reduction of average outward currents [3, 6]: 90%
- unitary current amplitude, inward ([3]; 5 mM GsMTx4 [sic], 250 mV pipette potential as printed, control 1.74 pA): 1.58 pA
- unitary current amplitude, outward ([3]; 5 mM GsMTx4 [sic], pipette potential printed 150 mV / 50 mV, control 1.10 pA): 1.08 pA
- change in outward unitary current amplitude ([3]; in presence of GsMTx4): no change; also recorded: no observable effect
- reduction in inward unitary current amplitude ([3]; in presence of GsMTx4): 10%
- gA single-channel current (gA channels; FIG. 3b): reduces the single-channel current
- increase in gA channel appearance rate (gA channels; GsMTx4, FIG. 3): 10-25 fold
- increase in gA open channel lifetime (gA channels; GsMTx4, FIG. 3c): approximately 2 fold
- adsorption coefficient ([4]; corresponding to the partition coefficient): 10 ^−3 cm
- partition coefficient ([GsMTx4]bil/[Lipid])/([GsMTx4]aq/[H2O]) ([4]; large unilamellar lipid vesicles, pH 7): ~3×10^5
- apparent association rate for SAC effects (Ka) (cationic SACs [5]): ≈ 10^6 M^−1 s^−1
- apparent dissociation rate for SAC effects (KD) (cationic SACs [5]): ≈ 0.2 s^−1
- Kd (cationic SACs [5]; SAC gating, read-out: effective KD for gating): 0.5 µM
- inhibition of stretch activated channels (TRPC1): inhibited stretch activated channels
